Experimental data from patent US8367614B2, “Rheumatoid arthritis-preventive agent for oral intake” (Calpis Co., Ltd, priority 2006, dated 2013).

How the values were obtained:
[1] = tested on: adjuvant arthritis; test: Adjuvant arthritis in rats, arthritis score (Example 2)
[2] = tested on: adjuvant arthritis; test: Adjuvant arthritis in rats, arthritis score (Example 1 and Comparative Examples 1-3); type: in vivo, Female Lewis rats; details: test material 10% in 0.5% CMC, 1 ml/100 g oral once a day, average ± standard error

| Molecule | Arthritis score ([1]; Ibuprofen 0.3% in 0.5% CMC, 1 ml/100 g oral once a day, day 0) | Arthritis score ([1]; Ibuprofen 0.3%, oral once a day, day 5) | Arthritis score ([1]; Ibuprofen 0.3%, oral once a day, day 9) | Arthritis score ([1]; Ibuprofen 0.3%, oral once a day, day 14) | Arthritis score ([1]; Ibuprofen 0.3%, oral once a day, day 19) | Arthritis score ([1]; Ibuprofen 0.3%, oral once a day, day 21) | Arthritis score ([2]; day 0 to 21, day 0, max 12 points) | Arthritis score ([2]; day 5) | Arthritis score ([2]; day 9) | Arthritis score ([2]; day 14) | Arthritis score ([2]; day 19) | Arthritis score ([2]; day 22) |
| --- | --- | --- | --- | --- | --- | --- | --- | --- | --- | --- | --- | --- |
| CC(C)Cc1ccc(C(C)C(=O)O)cc1 (stereo not drawn) [Ibuprofen] | 0 | 0 | 0.1 ± 0.1 | 6.5 ± 0.6 | 9.0 ± 0.5 | 9.5 ± 0.3 | – | – | – | – | – | – |
| sodium caseinate [Comp. Ex. 2] | – | – | – | – | – | – | 0.00 | 0.00 | 1.25 ± 0.37 | 8.25 ± 0.62 | 10.50 ± 0.33 | 10.38 ± 0.32 |
